In ChEMBL document CHEMBL3272311, “Syntheses and pharmacological activity of substituted imidazolidinethiones and thiomidazolines” (J Med Chem, 1977):
Active and inactive are the calls of the source. No cut-off for these calls is given here.

Experiments:
[1] = Toxicity in ip dosed Swiss-Webster mouse after 24 hrs; format: organism-based; settings: in vivo
Mus musculus [2] = assay: Safety index, ratio of LD50 for toxicity in Swiss-Webster mouse to ED50 for CNS depressant activity in ip dosed Swiss-Webster by rotarod assay; format: functional
Mus musculus [3] = assay: Anticonvulsant activity against maximal electroshock-induced seizure in Swiss-Webster mouse assessed as prolongation of time for onset of convulsion at 50 to 200 mg/kg, ip relative to control; format: functional; settings: dose mg/kg 50-200; route intraperitoneal
Mus musculus [4] = assay: Anticonvulsant activity against pentylenetetrazole-induced seizure in Swiss-Webster mouse assessed as prolongation of time for onset of convulsion at 50 to 200 mg/kg, ip relative to control; format: functional
Rattus norvegicus [5] = assay: Toxicity in Wistar rat assessed as decrease in respiration at 50 to 200 mg/kg, ip; format: organism-based; set-up: dose 50-200 mg/kg, route intraperitoneal; scale not given: the % may be the effect or the level left; settings: in vivo
Rattus norvegicus [6] = assay: Toxicity in Wistar rat assessed as decrease in body temperature at 50 to 200 mg/kg, ip; format: organism-based; set-up: dose 50-200 mg/kg, route intraperitoneal; settings: in vivo
Rattus norvegicus [7] = assay: Toxicity in Wistar rat assessed as marked ptosis at 50 to 200 mg/kg, ip; format: organism-based; set-up: dose 50-200 mg/kg, route intraperitoneal; settings: in vivo
Rattus norvegicus [8] = assay: Toxicity in Wistar rat assessed as decrease in heart rate at 50 to 200 mg/kg, ip; format: organism-based; set-up: dose 50-200 mg/kg, route intraperitoneal; settings: in vivo
Mus musculus [9] = assay: CNS depressant activity in ip dosed Swiss-Webster mouse assessed as spontaneous motor activity by rotarod assay; format: functional
Mus musculus [10] = assay: Anticonvulsant activity against strychnine-induced seizure in Swiss-Webster mouse assessed as prolongation of time for onset of convulsion at 50 to 200 mg/kg, ip relative to control; format: functional; settings: dose mg/kg 50-200; route intraperitoneal
Mus musculus [11] = assay: CNS depressant activity in Swiss-Webster mouse assessed as spontaneous motor activity at 50 to 200 mg/kg, ip by rotarod assay relative to control; format: functional; settings: dose mg/kg 50-200; route intraperitoneal
Mus musculus [12] = assay: CNS depressant activity in Swiss-Webster mouse assessed as forced motor activity at 50 to 200 mg/kg, ip by rotarod assay relative to control; format: functional; settings: dose mg/kg 50-200; route intraperitoneal
Rattus norvegicus [13] = assay: Toxicity in Wistar rat assessed as decrease in respiration at 5 to 15 mg/kg, ip; format: organism-based; set-up: dose 5-15 mg/kg, route intraperitoneal; scale not given: the % may be the effect or the level left; settings: in vivo
Rattus norvegicus [14] = assay: Toxicity in Wistar rat assessed as decrease in body temperature at 5 to 15 mg/kg, ip; format: organism-based; set-up: dose 5-15 mg/kg, route intraperitoneal; settings: in vivo
Rattus norvegicus [15] = assay: Toxicity in Wistar rat assessed as marked ptosis at 5 to 15 mg/kg, ip; format: organism-based; set-up: dose 5-15 mg/kg, route intraperitoneal; settings: in vivo
Rattus norvegicus [16] = assay: Toxicity in Wistar rat assessed as decrease in heart rate at 5 to 15 mg/kg, ip; format: organism-based; set-up: dose 5-15 mg/kg, route intraperitoneal; settings: in vivo
Mus musculus [17] = assay: Anticonvulsant activity in Swiss-Webster mouse assessed as protection against pentylenetetrazole-induced seizure at 10 to 20 mg/kg, ip; format: functional, organism-based
Mus musculus [18] = assay: Anticonvulsant activity in Swiss-Webster mouse assessed as protection against strychnine-induced seizure at 10 to 20 mg/kg, ip; format: functional, organism-based

SMILES	LD50 at 24 h [1] [mg/kg]	Ratio LD50/ED50 (Mus musculus [2])	Activity (Mus musculus [3]) [%]	Activity (Mus musculus [4])	ED50 (Mus musculus [9]) [mg/kg]	further results
COC(=O)N1CCN=C1SC	> 1000	16.1	106	Active	–	–
CC(=O)N1CCN(C)C1=S	40	0.5	–	–	–	–
CSC1=NCCN1C(C)=O	> 1000	–	90	Active	150	Activity (Rattus norvegicus [5]): 50%; T (Rattus norvegicus [6]): 3 °C; Activity (Rattus norvegicus [7]): Toxic; Activity (Rattus norvegicus [8]): 25 bpm; Activity (Mus musculus [10]): 48%
COC(=O)N1CCN=C1SCC(=O)c1ccccc1	> 1000	–	75	–	–	inhibition (INH) (Mus musculus [11]): 85%; inhibition (INH) (Mus musculus [12]): 40%; Activity (Mus musculus [4]; dose mg/kg 50-200, route intraperitoneal): 134%
COC(=O)N1CCN(C)C1=S	25	–	–	–	18	Activity (Rattus norvegicus [13]): 20%; T (Rattus norvegicus [14]): 1 °C; Activity (Rattus norvegicus [15]): Non-toxic; Activity (Rattus norvegicus [16]): 8 bpm
O=C1NC(=O)C(c2ccccc2)(c2ccccc2)N1 [PHENYTOIN]	–	–	–	–	10.7	Activity (Mus musculus [17]): inactive; Activity (Mus musculus [18]): inactive
